Laboratory results reported in EP0009776A1, “N-monohydroxypropylamides, N-dihydroxypropylamides and their acetonoides of all-E and 13-Z retinoic acid, process for their preparation and pharmaceutical compositions containing them” (BASF Aktiengesellschaft, priority 1978, dated 1980).

System: Hamster-Tracheen-Gewebe
Assay: Reversal of keratinization induced by vitamin A deficiency in hamster tracheal tissue (method of Clamon et al. / Sporn et al.)
Type: cell-based
Conditions: in 10^-8 molarer Lösung
Source text: Die erfindungsgemäßen Verbindungen sind in ihrer biologischen Aktivität den bekannten Retinsäureamiden der DE-OS 21 02 586 in etwa vergleichbar. Beispielsweise hebsowohl Retinsäure-N-(ß-hydroxy)-ethylamid als auch die erfindungsgemäßen Retinoide die durch Vitamin A-Hypovitamines induzierte Keratinisierung von Hamster-Tracheen-Gewebe noch in 10^-8 molarer Lösung vollständig auf. Die Methodik hierzu kann G.H. CLAMON et al Nature 250, 64 - 66 (1974) oder M.B. SPORN et al Nature 253, 47 - 50 (1975) entnommen werden. Die Keratinisierung wird als praekanzerotischer Prozes angesehen.

In the case of `CC1=C(/C=C/C(C)=C/C=C/C(C)=C/C(=O)NCCO)C(C)(C)CCC1` [Retinsäure-N-(ß-hydroxy)-ethylamid], the “Aufhebung der durch Vitamin A-Hypovitamines induzierten Keratinisierung von Hamster-Tracheen-Gewebe” value is reported as “vollständig”.
